The experiment concerns bacteria in 35 wt % corn slurry solution. Nature of the experiment: Bacterial growth control in corn slurry, bacteria count and reduction (Example 2, Table 1 and FIG. 5). The experiment is classed as cell-based. The method, then: The effect of combined amounts of hydrogen peroxide and monochloramine at other tested addition amounts on bacterial growth control and their addition timing was further studied using laboratory experiments. For this additional study, laboratory experiments were performed using hydrogen peroxide at dosages of 100 ppm and 200 ppm, and monochloramine (“Oxamine”) at dosages of 25 ppm, 50 ppm, 75 ppm, and 100 ppm. The time between peroxide and monochloramine addition was up to 10 minutes (i.e., 0-10 minutes). All experiments were carried out with 35 wt % corn slurry solution.

As to `NCl` [Oxamine, monochloramine], the “% Reduction” value was found to be 98.99% (25 ppm Oxamine alone), 99.93% (50 ppm Oxamine alone), 99.97% (75 ppm Oxamine alone) and 99.98% (100 ppm Oxamine alone). Besides, the “Bacteria Count” value (25 ppm Oxamine alone) is listed as 5.E+04, the “Bacteria Count” value (50 ppm Oxamine alone) is recorded as 4.E+03, the “Bacteria Count” value (75 ppm Oxamine alone) came out at 1.E+03 and the “Bacteria Count” value (100 ppm Oxamine alone) was 9.E+02.
With `OO` [H2O2, hydrogen peroxide], under “100 ppm H2O2 alone”, the “% Reduction” value is 0.00% and the “Bacteria Count” value came to 5.E+06. Under “200 ppm H2O2 alone”, the “% Reduction” value was found to be 18.37% and the “Bacteria Count” value was 4.E+06.

The values are drawn from patent US20190239511A1, “Synergistic Combinations Of Monochloramine And Peroxide Compound, And Methods Of Using The Same For Microbial Control” (Buckman Laboratories International, Inc., priority 2018, published 2019).
